Laboratory results taken from the supplement of paper PMC9663587.

Legend:
Experiment in all cases: GRmax, 72 h; higher = less effect;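 note: breast cell lines in 384-well plates, nine doses across a 10^4 range, Dye Drop imaging of viable cells vs DMSO and time-zero plates, GR 0 means no net growth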
184A1 = tested on: 184A1
BT20 = tested on: BT20
CAL120 = tested on: CAL120
EVSAT = tested on: EVSAT
HCC1806 = tested on: HCC1806
HCC70 = tested on: HCC70
MCF7 = tested on: MCF7
MDAMB468 = tested on: MDAMB468
SUM159 = tested on: SUM159
SUM229PE = tested on: SUM229PE
SUM44PE = tested on: SUM44PE
UACC812 = tested on: UACC812
ZR751 = tested on: ZR751

Row | Structure (SMILES) | GRmax, 72 h (184A1) | GRmax, 72 h (BT20) | GRmax, 72 h (CAL120) | GRmax, 72 h (EVSAT) | GRmax, 72 h (HCC1806) | GRmax, 72 h (HCC70) | GRmax, 72 h (MCF7) | GRmax, 72 h (MDAMB468) | GRmax, 72 h (SUM159) | GRmax, 72 h (SUM229PE) | GRmax, 72 h (SUM44PE) | GRmax, 72 h (UACC812) | GRmax, 72 h (ZR751) | GRmax, 72 h (BT20; main component drawn) | GRmax, 72 h (CAL120; main component drawn) | GRmax, 72 h (HCC1806; main component drawn) | GRmax, 72 h (HCC70; main component drawn) | GRmax, 72 h (MCF7; main component drawn) | GRmax, 72 h (MDAMB468; main component drawn) | GRmax, 72 h (SUM159; main component drawn)
1 | C=CCn1c(=O)c2cnc(Nc3ccc(N4CCN(C)CC4)cc3)nc2n1-c1cccc(C(C)(C)O)n1 [AZD1775] (max 10 µM) | 0.0471 GR | -0.677 GR | -0.238 GR | -0.39 GR | -0.55 GR | -0.75 GR | -0.0913 GR | -0.492 GR | -0.152 GR | -0.259 GR | -0.813 GR | -0.598 GR | 0.247 GR |  |  |  |  |  |  | 
2 | CN1CCN(CCOc2cc(OC3CCOCC3)c3c(Nc4c(Cl)ccc5c4OCO5)ncnc3c2)CC1 [Saracatinib/AZD0530] (max 10 µM) | 0.24 GR | 0.31 GR | 0.526 GR | 0.0408 GR | 0.221 GR | -0.172 GR | 0.274 GR | 0.178 GR | 0.723 GR | 0.236 GR | 0.381 GR | -0.847 GR | 0.328 GR |  |  |  |  |  |  | 
3 | N.N.[Cl][Pt][Cl] [Cisplatin] (max 10 µM) |  | -0.337 GR | 0.188 GR |  | -0.365 GR | -0.683 GR | 0.475 GR | -0.287 GR | 0.0896 GR |  |  |  |  |  |  |  |  |  |  | 
4 | CCOc1cc2ncc(C#N)c(Nc3ccc(OCc4ccccn4)c(Cl)c3)c2cc1NC(=O)/C=C/CN(C)C [Neratinib/HKI272] (max 3.162 µM) | 0.162 GR | 0.303 GR | -0.261 GR | 0.649 GR | -0.0883 GR | 0.0595 GR | 0.0582 GR | -0.383 GR | 0.51 GR | 0.205 GR | -0.202 GR | -0.756 GR | 0.709 GR |  |  |  |  |  |  | 
5 | CNC(=O)c1cccc(-c2ccc3c(N4CCOC[C@@H]4C)nc(N4CCOC[C@@H]4C)nc3n2)c1 [AZD2014] (max 10 µM) | 0.0847 GR | 0.151 GR | 0.206 GR | -0.21 GR | 0.409 GR | 0.0453 GR | -0.0281 GR | 0.23 GR | 0.113 GR | 0.338 GR | -0.315 GR | -0.585 GR | -0.0477 GR |  |  |  |  |  |  | 
6 | CO[C@@H](C)Cn1c(=O)n(C)c2cnc3ccc(-c4cncc(C(C)(C)O)c4)cc3c21 (max 10 µM) | 0.0943 GR | -0.645 GR | 0.0419 GR | -0.384 GR | -0.0061 GR | -0.755 GR | -0.248 GR | -0.211 GR | 0.0637 GR | 0.0211 GR | -0.855 GR | -0.663 GR | -0.117 GR |  |  |  |  |  |  | 
7 | CCN1CCN(Cc2ccc(Nc3ncc(F)c(-c4cc(F)c5nc(C)n(C(C)C)c5c4)n3)nc2)CC1 (max 10 µM) | -0.105 GR | -0.216 GR | -0.141 GR | -0.545 GR | -0.444 GR | -0.826 GR | -0.268 GR | -0.288 GR | -0.0575 GR | 0.146 GR | -0.763 GR | -0.603 GR | 0.311 GR |  |  |  |  |  |  | 
8 | O=C(c1cc(Cc2n[nH]c(=O)c3ccccc23)ccc1F)N1CCN(C(=O)C2CC2)CC1 [Olaparib/AZD2281] (max 10 µM) | 0.563 GR | 0.606 GR | 0.269 GR | 0.773 GR | 0.489 GR | 0.719 GR | 0.514 GR | 0.341 GR | 0.76 GR | 0.75 GR | 0.803 GR | 0.199 GR | 0.801 GR |  |  |  |  |  |  | 
9 | O=C(CCCCCCC(=O)Nc1ccccc1)NO [Vorinostat] (max 10 µM) | -0.0468 GR | -0.113 GR | -0.228 GR | -0.497 GR | 0.0178 GR | -0.476 GR | -0.175 GR | -0.119 GR | 0.181 GR | -0.0664 GR | -0.427 GR | -0.487 GR | -0.0452 GR |  |  |  |  |  |  | 
10 | Cc1nc(Nc2ncc(C(=O)Nc3c(C)cccc3Cl)s2)cc(N2CCN(CCO)CC2)n1 [Dasatinib] (max 10 µM) | 0.192 GR | 0.283 GR | 0.176 GR | 0.171 GR | -0.0992 GR | -0.579 GR | 0.157 GR | 0.339 GR | 0.732 GR | -0.112 GR | 0.47 GR | -0.714 GR | -0.213 GR |  |  |  |  |  |  | 
11 | Nc1cc(C(F)(F)F)c(-c2cc(N3CCOCC3)nc(N3CCOCC3)n2)cn1 [Buparlisib/NVP-BKM120] (max 10 µM) | -0.0111 GR | -0.551 GR | -0.272 GR | -0.499 GR | -0.269 GR | -0.727 GR | -0.269 GR | -0.516 GR | -0.279 GR | -0.285 GR | -0.611 GR | -0.822 GR | -0.226 GR |  |  |  |  |  |  | 
12 | CC(C)Nc1cc(-c2c[nH]c(C(=O)N[C@H](CO)c3cccc(Cl)c3)c2)c(Cl)cn1 [BVD523] (max 10 µM) | 0.046 GR | 0.463 GR | 0.482 GR | 0.695 GR | 0.76 GR | 0.461 GR | 0.334 GR | 0.402 GR | 0.156 GR | 0.265 GR | -0.0062 GR | 0.176 GR | 0.554 GR |  |  |  |  |  |  | 
13 | CC[C@@H]1C(=O)N(C)c2cnc(Nc3ccc(C(=O)N[C@H]4CC[C@H](N5CCN(CC6CC6)CC5)CC4)cc3OC)nc2N1C(C)C [Volasertib/BI6727] (max 1 µM) | -0.13 GR | -0.534 GR | 0.0258 GR | -0.375 GR | -0.132 GR | -0.205 GR | -0.0338 GR | -0.449 GR | 0.0326 GR | -0.356 GR | -0.288 GR | -0.496 GR | -0.17 GR |  |  |  |  |  |  | 
14 | CNCc1ccc(-c2[nH]c3cc(F)cc4c3c2CCNC4=O)cc1 [Rucaparib] (max 10 µM) | 0.748 GR | 0.875 GR | 0.613 GR | 0.908 GR | 0.68 GR | 1.06 GR | 0.635 GR | 0.345 GR | 0.799 GR | 0.888 GR | 0.867 GR | 0.661 GR | 0.835 GR |  |  |  |  |  |  | 
15 | COc1cc([C@@H]2c3cc4c(cc3[C@@H](O[C@@H]3O[C@@H]5CO[C@@H](C)O[C@H]5[C@H](O)[C@H]3O)[C@H]3COC(=O)[C@H]23)OCO4)cc(OC)c1O [Etoposide] (max 10 µM) |  | -0.383 GR | -0.166 GR |  | -0.563 GR | -0.152 GR | -0.0441 GR | -0.513 GR | -0.279 GR |  |  |  |  |  |  |  |  |  |  | 
16 | Cc1c(N)nc([C@H](CC(N)=O)NC[C@H](N)C(N)=O)nc1C(=O)N[C@H](C(=O)N[C@H](C)[C@@H](O)[C@H](C)C(=O)N[C@H](C(=O)NCCc1nc(-c2nc(C(=O)NCCC[S+](C)C)cs2)cs1)[C@@H](C)O)[C@@H](OC1OC(CO)C(O)C(O)C1OC1OC(CO)C(O)C(OC(N)=O)C1O)c1cnc[nH]1 (stereo not given in full) [Bleomycin] (max 10 µM) |  |  |  |  |  |  |  |  |  |  |  |  |  | -0.129 GR | 0.0886 GR | 0.481 GR | -0.115 GR | -0.0459 GR | -0.21 GR | -0.21 GR
